Article PMC6430037 (Heliyon, 2019)

Columns and labels:
Cell viability assay = type: cell-based, human; conditions: human, SH-SY5Y cells
SH-SY5Y cells = assay: Cell viability assay; type: cell-based, human; conditions: 48 h, SH-SY5Y
mice [1] = assay: Spontaneous locomotor activity; type: in vivo; conditions: 30 mg/kg i.p., 5 min counts
hMAO B = conditions: read-out: IC50 hMAO B; cited from earlier work
[2] = PAMPA-BBB permeability assay; type: in vitro ADME
μ-opioid receptor [3] = target: T1, μ-opioid receptor (Rattus norvegicus, UniProt P33535); conditions: read-out: μ-opioid Ki; [3H]-DAMGO, rat forebrain membranes; cited from earlier work
5-HT1A receptor = target: T2, 5-HT1A receptor (Rattus norvegicus, UniProt P19327); assay: [3H]-8-OH-DPAT radioligand binding assay
T2 sequence (P19327 1-422): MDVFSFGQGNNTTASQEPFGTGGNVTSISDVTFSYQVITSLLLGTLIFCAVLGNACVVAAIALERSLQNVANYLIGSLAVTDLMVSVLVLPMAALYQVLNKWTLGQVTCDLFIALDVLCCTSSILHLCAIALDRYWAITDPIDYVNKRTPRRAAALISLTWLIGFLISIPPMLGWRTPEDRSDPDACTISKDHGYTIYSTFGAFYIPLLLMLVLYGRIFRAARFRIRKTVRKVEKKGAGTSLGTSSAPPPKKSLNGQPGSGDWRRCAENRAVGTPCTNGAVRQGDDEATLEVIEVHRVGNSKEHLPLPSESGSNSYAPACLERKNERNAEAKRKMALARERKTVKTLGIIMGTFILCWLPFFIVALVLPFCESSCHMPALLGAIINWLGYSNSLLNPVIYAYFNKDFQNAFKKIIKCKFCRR

[4] = system: BDZ-bs of the GABAA receptor; assay: [3H]-FNZ radioligand binding assay; conditions: [3H]-FNZ displacement, compound at 300 μM, rat cerebral cortex membranes
mice [5] = assay: Tail suspension test; type: in vivo; conditions: 30 min before
hMAO A = conditions: cited from earlier work
μ-opioid receptor [6] = target: T1, μ-opioid receptor; assay: [3H]-DAMGO radioligand binding assay; conditions: read-out: μ-opioid Binding inhibition (%) [300 μM]
[7] = target: benzodiazepine binding site (BDZ-bs) of the GABAA receptor; conditions: read-out: Ki for the BDZ-bs of the GABAA receptor; cited from earlier work
rats = conditions: cited from earlier work

T1 sequence (P33535 whole entry): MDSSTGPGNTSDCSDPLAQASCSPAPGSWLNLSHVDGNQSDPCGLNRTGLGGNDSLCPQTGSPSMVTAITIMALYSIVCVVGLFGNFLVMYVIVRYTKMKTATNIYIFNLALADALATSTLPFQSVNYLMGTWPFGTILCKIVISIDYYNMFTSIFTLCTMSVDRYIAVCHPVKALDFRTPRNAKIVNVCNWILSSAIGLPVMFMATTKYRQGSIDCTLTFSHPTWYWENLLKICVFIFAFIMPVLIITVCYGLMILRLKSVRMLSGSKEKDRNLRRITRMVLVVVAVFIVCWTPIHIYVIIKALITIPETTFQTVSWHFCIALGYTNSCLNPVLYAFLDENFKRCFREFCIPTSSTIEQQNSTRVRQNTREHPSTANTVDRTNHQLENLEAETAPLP

SMILES | viability at 48 h, 20 µM (Cell viability assay) [%] | concentration up to which cell viability was not affected (SH-SY5Y cells) [µM] | spontaneous locomotor activity vs VEH (mice [1]) | IC50 (hMAO B) [µM] | Papp at 16 h, 50 µM ([2]; PAMPA, pH 7.4) [×10⁻⁶ cm/s] | BBB penetration estimation Prediction ([2]; PAMPA-BBB binning by -logPe) | Ki (μ-opioid receptor [3]) [µM] | Ki (5-HT1A receptor) [µM] | inhibition at 300 µM (5-HT1A receptor; read-out: 5-HT1A Binding Inhibition (%) [300 μM]) [%] | BDZ-bs Binding inhibition (%) [300 μM] [4] | immobility time vs VEH (mice [5]; 10 mg/kg i.p.) | immobility time vs VEH (mice [5]; 30 mg/kg i.p.) | effect on hMAO A (hMAO A) | inhibition at 300 µM (μ-opioid receptor [6]) [%] | Ki [7] [µM] | effect in the plus-maze test (rats)
O=C(/C=C/c1ccccc1)c1ccccc1 [Compound 1, Chalcone] | 95.9 | 75 | significant increase | 1.41 ± 0.07 | 26.3 | CNS+ (CNS+, -logPe < 5.6, high permeability) | 28.2 ± 9.9 | 20.8 ± 1.5 | 60 to 90 | ++++ (inhibition >90% (++++)) | significantly reduced | significantly reduced | no effect | 60 to 90 |  | 
O=C(/C=C/c1ccc(O)cc1)c1ccc(O)cc1O [isoliquiritigenin, 2′,4′,4-trihydroxychalcone] |  |  |  |  |  |  |  |  |  |  |  |  |  |  | 0.45 | anxiolytic-like effect
